Article PMC9730799, “Elucidation of the interactome of the sucrose transporter StSUT4: sucrose transport is connected to ethylene and calcium signalling” (Journal of Experimental Botany, 2022)

Target: T1, StSUT4 (Solanum tuberosum, UniProt Q9FV92)
T1 construct: gene SUT4; StSUT4 cDNA in pDR196, expressed in yeast cells
T1 sequence (Q9FV92 1-500): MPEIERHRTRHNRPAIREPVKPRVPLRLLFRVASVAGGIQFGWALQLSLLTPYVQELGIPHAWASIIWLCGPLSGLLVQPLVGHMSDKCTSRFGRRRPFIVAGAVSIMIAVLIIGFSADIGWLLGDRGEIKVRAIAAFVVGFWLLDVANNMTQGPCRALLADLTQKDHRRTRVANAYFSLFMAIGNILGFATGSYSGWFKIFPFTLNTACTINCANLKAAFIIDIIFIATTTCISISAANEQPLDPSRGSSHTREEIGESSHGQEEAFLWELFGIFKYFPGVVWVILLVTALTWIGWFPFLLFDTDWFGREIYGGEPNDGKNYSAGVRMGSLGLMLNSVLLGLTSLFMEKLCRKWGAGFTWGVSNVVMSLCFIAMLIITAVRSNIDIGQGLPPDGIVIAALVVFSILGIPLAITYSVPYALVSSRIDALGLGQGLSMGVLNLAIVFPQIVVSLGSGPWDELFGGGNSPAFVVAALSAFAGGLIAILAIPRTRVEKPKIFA
Test: competition with esculin uptake in yeast, fluorescence
Format: cell-based
Details: 8 mM esculin, pH 5.0, 20 mM unlabelled sucrose

`OC[C@H]1O[C@@](CO)(O[C@H]2O[C@H](CO)[C@@H](O)[C@H](O)[C@H]2O)[C@@H](O)[C@@H]1O` [sucrose] was tested, and the “% inhibition at 20 mM” value was “~ almost 50%”.
